Where a name gives a salt, the structure may show the parent alone.
Columns and labels:
phosphodiesterase [1] = assay: Inhibition of phosphodiesterase isolated from rat brain tissue (radioisotopic technique, tritium-labelled c-AMP); format: biochemical; settings: 20 minutes incubation, % of control
Method: Our model experiments were carried out by means of phosphodiesterase isolated from animal tissues. More particularly, the enzyme was isolated from the brain tissue of rats following the method of J. Schroder and H. V. Richenberg [Biochem. Biophys. Acta 302, 50 (1973)], whereupon the isolated phosphodiesterase was purified by the method of J. G. Hardman and E. W. Sutherland [J. Biol. Chem. 240, 3704 (1965)]. Finally, the activity of the purified enzyme was measured by the radioisotopic technique of G. Poch, in the presence of an excess amount of tritium-labelled c-AMP, in an incubator, initially without the inhibiting system and thereafter in the presence of a compound of the formula (I) as an inhibitor. The enzyme activity was determined after an incubation time of 20 minutes [N. S. Arch. Pharmacol. 268, 272 (1971)]. From the salts of the test compounds of the formula (I) aqueous 10^-3 molar stock solutions were prepared, their pH was adjusted to 4 to 5. To the incubated enzyme preparations suitable amounts of the stock solution were added in order to obtain a series of test solutions containing a compound of the formula (I) in a concentration of 10^-5, 5× 10^-5, 10^-4, 5×10^-4 and 10^-3 moles/lit. […] The degree of inhibition (decrease of enzyme activity) was expressed in % of the control (enzyme preparation containing no inhibitor).

phosphodiesterase [2] = assay: as above; format: biochemical; settings: 20 minutes incubation, % of control; remark: listed apart in the source
psoriasis = settings: Voorhees et al.; cited from earlier work
phosphodiesterase [3] = settings: Voorhees et al.; cited from earlier work
adenyl cyclase = settings: Voorhees et al.; cited from earlier work

In the case of `CC[C@@]12C=C(C(=O)OC)n3c4c(c5ccccc53)CCN(CCC1)[C@H]42` [Apovincamine], the “Inhibition (%) obtained by 1 × 10^-4 moles/lit. concentrations of the test compounds” value (phosphodiesterase [1]) is reported as 54.8%, the “Inhibition (%) obtained by 1 × 10^-5 moles/lit. concentrations of the test compounds” value (phosphodiesterase [1]) is reported as 20.3% and the “Inhibition (%) obtained by 5 × 10^-5 moles/lit. concentrations of the test compounds” value (phosphodiesterase [1]) is reported as 33.5%. The “Inhibition (%) obtained by 5 × 10^-6 moles/lit. concentrations of the test compounds” value (phosphodiesterase [2]) was 21.9%.

For `CC[C@@]12C=C(C(N)=O)n3c4c(c5ccccc53)CCN(CCC1)[C@H]42` [Apovincaminic acid amide], the “Inhibition (%) obtained by 1 × 10^-4 moles/lit. concentrations of the test compounds” value (phosphodiesterase [1]) was 76.9%, the “Inhibition (%) obtained by 1 × 10^-5 moles/lit. concentrations of the test compounds” value (phosphodiesterase [1]) was 22.0% and the “Inhibition (%) obtained by 5 × 10^-5 moles/lit. concentrations of the test compounds” value (phosphodiesterase [1]) was 60.0%. The “Inhibition (%) obtained by 5 × 10^-6 moles/lit. concentrations of the test compounds” value (phosphodiesterase [2]) was 10.0%.

In the case of `CC[C@@]12C=C(C(=O)NN)n3c4c(c5ccccc53)CCN(CCC1)[C@H]42` [Apovincaminic acid-hydrazide, apovincaminic acid hydrazide], the “Inhibition (%) obtained by 1 × 10^-4 moles/lit. concentrations of the test compounds” value (phosphodiesterase [1]) is reported as 57.0% and the “Inhibition (%) obtained by 5 × 10^-5 moles/lit. concentrations of the test compounds” value (phosphodiesterase [1]) is reported as 32.0%.

For `CC[C@@]12C=C(C(=O)OC)n3c4c(c5ccc(OC)cc53)CCN(CCC1)[C@H]42` [Apovincine-KHSO4], the “Inhibition (%) obtained by 1 × 10^-4 moles/lit. concentrations of the test compounds” value (phosphodiesterase [1]) was 71.8%, the “Inhibition (%) obtained by 1 × 10^-5 moles/lit. concentrations of the test compounds” value (phosphodiesterase [1]) was 49.0% and the “Inhibition (%) obtained by 5 × 10^-5 moles/lit. concentrations of the test compounds” value (phosphodiesterase [1]) was 59.4%. For the same compound, the “Inhibition (%) obtained by 5 × 10^-6 moles/lit. concentrations of the test compounds” value (phosphodiesterase [2]) was 36.6%.

With `CC[C@@]12C=C(C(=O)OC)n3c4c(c5ccc(OC)cc53)CCN(CCC1)[C@H]42` [Apovincine-tartrate] the “Inhibition (%) obtained by 1 × 10^-4 moles/lit. concentrations of the test compounds” value (phosphodiesterase [1]) was 81.6%, the “Inhibition (%) obtained by 1 × 10^-5 moles/lit. concentrations of the test compounds” value (phosphodiesterase [1]) was 48.7% and the “Inhibition (%) obtained by 5 × 10^-5 moles/lit. concentrations of the test compounds” value (phosphodiesterase [1]) was 76.9%. The “Inhibition (%) obtained by 5 × 10^-6 moles/lit. concentrations of the test compounds” value (phosphodiesterase [2]) was 38.1%.

In the case of `CCOC(=O)C1=C[C@]2(CC)CCCN3CCc4c(n1c1cc(OC)ccc41)[C@@H]32` [Apovincinic acid ethyl ester tartrate], the “Inhibition (%) obtained by 1 × 10^-4 moles/lit. concentrations of the test compounds” value (phosphodiesterase [1]) is reported as 58.6%, the “Inhibition (%) obtained by 1 × 10^-5 moles/lit. concentrations of the test compounds” value (phosphodiesterase [1]) is reported as 23.7% and the “Inhibition (%) obtained by 5 × 10^-5 moles/lit. concentrations of the test compounds” value (phosphodiesterase [1]) is reported as 44.0%.

For `COc1ccc(Cc2nccc3cc(OC)c(OC)cc23)cc1OC` [Papaverine, reference compound], the “Inhibition (%) obtained by 1 × 10^-4 moles/lit. concentrations of the test compounds” value (phosphodiesterase [1]) is given as 56.4%, the “Inhibition (%) obtained by 5 × 10^-5 moles/lit. concentrations of the test compounds” value (phosphodiesterase [1]) is given as 36.4% and the influencing psoriasis (psoriasis) is given as “succeeded in influencing psoriasis”. For the same compound, the “inhibition of the function of phosphodiesterase” value (phosphodiesterase [3]) was “inhibit the function of phosphodiesterase”.

In the case of `CC[C@@]12C=C(COC(C)=O)n3c4c(c5ccc(OC)cc53)CCN(CCC1)[C@H]42` [Tartrate salt of apovincinol-acetate], the “Inhibition (%) obtained by 1 × 10^-4 moles/lit. concentrations of the test compounds” value (phosphodiesterase [1]) is reported as 62.3%, the “Inhibition (%) obtained by 1 × 10^-5 moles/lit. concentrations of the test compounds” value (phosphodiesterase [1]) is reported as 34.8% and the “Inhibition (%) obtained by 5 × 10^-5 moles/lit. concentrations of the test compounds” value (phosphodiesterase [1]) is reported as 45.2%. For the same compound, the “Inhibition (%) obtained by 5 × 10^-6 moles/lit. concentrations of the test compounds” value (phosphodiesterase [2]) was 30.9%.

In the case of `Cn1c(=O)c2[nH]cnc2n(C)c1=O` [Theophylline], the influencing psoriasis (psoriasis) is given as “succeeded in influencing psoriasis” and the “inhibition of the function of phosphodiesterase” value (phosphodiesterase [3]) is given as “inhibit the function of phosphodiesterase”.

For `NC[C@H](O)c1ccc(O)c(O)c1` [norepinephrine], the influencing psoriasis (psoriasis) is given as “succeeded in influencing psoriasis” and the “stimulation of the function of adenyl cyclase” value (adenyl cyclase) is given as “stimulate the function of adenyl cyclase”.
